What was measured:
human CYP11B2 enzyme = target: T1, human CYP11B2 enzyme (Homo sapiens, UniProt P19099); test: Enzyme inhibition activity assay in G402 cells stably expressing human CYP11B2 (aldosterone production from 11-DOC, LC/MS); type: cell-based; conditions: 1 µM 11-DOC, 16 hours, aldosterone detected
T1 construct: the ORF of human CYP11B1 or CYP11B2 were transfected into G402 cells; expressed in transfected cells
T1 sequence (P19099 25-503): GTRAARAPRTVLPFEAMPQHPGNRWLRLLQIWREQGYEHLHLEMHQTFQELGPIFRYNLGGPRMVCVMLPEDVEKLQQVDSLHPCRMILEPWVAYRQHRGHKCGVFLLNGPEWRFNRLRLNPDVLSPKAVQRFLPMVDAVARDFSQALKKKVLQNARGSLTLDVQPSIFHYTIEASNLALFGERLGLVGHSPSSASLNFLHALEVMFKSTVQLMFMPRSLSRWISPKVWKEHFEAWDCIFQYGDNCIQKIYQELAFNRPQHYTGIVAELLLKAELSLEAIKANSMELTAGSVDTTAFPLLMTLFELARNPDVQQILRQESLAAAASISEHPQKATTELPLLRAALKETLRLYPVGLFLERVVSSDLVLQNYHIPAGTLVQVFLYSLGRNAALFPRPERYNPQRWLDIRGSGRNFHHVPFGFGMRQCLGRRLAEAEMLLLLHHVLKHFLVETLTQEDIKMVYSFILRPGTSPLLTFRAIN
Excerpt: (§1) G402 cells (ATCC, CRL 1440) are epithelioid cells isolated from the kidney of a patient with renal failure and are a type of leiomyoblastoma. For the screening of highly specific CYP11B2 inhibitors, we specifically used G402 cell lines stably expressing human CYP11B2 enzyme or human CYP11B1 enzyme for experimental development.
(§2) Construction of Stably Transfected Cell Lines: Expression plasmids containing suitable promoters, suitable drug resistance markers, and the ORF of human CYP11B1 or CYP11B2 were transfected into G402 cells using standard techniques. The cells were then screened using the specific puromycin resistance marker. Monoclonal cells stably expressing human CYP11B2 were selected for expansion, and 11-deoxycorticosterone (11-DOC) was used as the specific substrate to evaluate enzyme activity based on aldosterone production. Monoclonal cells stably expressing human CYP11B1 were selected for expansion, and 11-deoxycortisol (11-DC) was used as the specific substrate, with cortisol production as the detection target for specific enzyme activity evaluation. The G402 cell lines stably expressing CYP11B1/CYP11B2 were cultured at 37 °C, 5% CO2, 95% air in complete medium (McCoy's 5A + 10% FBS + 1% PS + 0.5 µg/mL puromycin).
(§3) Enzyme Inhibition Activity Assay: CYP11B1 G402/CYP11B2 G402 cells were spread out flatly in cell culture plates. After 24 hours, the medium was changed to an enzyme testing system (DMEM/F12 + 2.5% charcoal-stripped FCS). Small molecule inhibitors at various concentrations were added. After 1 hour, appropriate concentrations of specific substrates (1 µM 11-DOC / 1 µM 11-DC) were added and co-incubated with the cells for 16 hours. Cells were then collected, and specific products were detected using LC/MS methods with an AB SCIEX TRIPLE QUAD 5500+, CTO-40S instrument (CYP11B2 enzyme detecting aldosterone; CYP11B1 enzyme detecting cortisol).
(§4) The IC50 values of the compounds were determined based on the G402 testing system. The dose-dependent inhibition of enzyme activity was calculated by plotting the added inhibitor concentration (x-axis) against the percentage of product inhibitory activity relative to the control group (y-axis) based on product formation at various compound concentrations. The following data were then fitted using the least squares method with XLfit 5.5.0 for a four-parameter logistic curve fit: [formula] • Y-axis: Percentage of product inhibitory activity relative to the control group; • logIC50: IC50 was determined using XLFit.
(§5) The maximum enzyme activity corresponds to the amount of control product steroid/aldosterone in the absence of inhibitor, set as 100%. The minimum enzyme activity corresponds to the amount of reference control product steroid/aldosterone in the presence of inhibitor. Table 3 Inhibitory Activity of the Compounds of the Present Disclosure on CYP11B2 and CYP11B1

human CYP11B1 enzyme = target: T2, human CYP11B1 enzyme (Homo sapiens, UniProt P15538); test: Enzyme inhibition activity assay in G402 cells stably expressing human CYP11B1 (cortisol production from 11-DC, LC/MS); type: cell-based; conditions: 1 µM 11-DC, 16 hours, cortisol detected
T2 construct: the ORF of human CYP11B1 or CYP11B2 were transfected into G402 cells; expressed in transfected cells
T2 sequence (P15538 25-503): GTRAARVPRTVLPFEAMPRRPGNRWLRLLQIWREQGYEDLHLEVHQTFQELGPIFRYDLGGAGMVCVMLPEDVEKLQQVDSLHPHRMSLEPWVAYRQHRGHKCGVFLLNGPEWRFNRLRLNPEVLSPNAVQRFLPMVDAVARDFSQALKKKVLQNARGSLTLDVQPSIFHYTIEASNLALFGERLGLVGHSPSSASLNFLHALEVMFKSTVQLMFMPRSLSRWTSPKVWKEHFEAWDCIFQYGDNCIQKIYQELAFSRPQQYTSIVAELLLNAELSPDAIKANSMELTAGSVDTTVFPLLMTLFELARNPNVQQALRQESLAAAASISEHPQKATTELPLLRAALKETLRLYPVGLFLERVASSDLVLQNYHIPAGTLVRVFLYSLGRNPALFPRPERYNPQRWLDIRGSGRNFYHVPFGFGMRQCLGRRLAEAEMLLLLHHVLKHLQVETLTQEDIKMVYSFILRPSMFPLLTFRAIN
Excerpt: as §1, §2, §3, §4, §5

SMILES	IC50 (human CYP11B2 enzyme)	IC50 (human CYP11B1 enzyme)
CNC(=O)N[C@@H]1CCCc2c(-c3ccc4c(c3)OCC(=O)N4C)cncc21 [Compound A24]	11.7 nM	1550 nM
[2H]C([2H])([2H])NC(=O)N[C@@H]1CCOc2c(-c3ccc4c(ccc(=O)n4C)c3)cncc21 [Compound A17]	23.1 nM	–
[2H]C([2H])([2H])OC(=O)N[C@@H]1CCCc2c(-c3ccc4c(ccc(=O)n4C)c3)cncc21 [Compound A27]	5 nM	213 nM
COC(=O)N[C@@H]1CCOc2c(-c3ccc4c(c3)COC(=O)N4C)cncc21 [Compound A43]	6.6 nM	572 nM
[2H]C([2H])([2H])OC(=O)N[C@@H]1CCOc2c(-c3ccc4c(c3)cc(C#N)n4C)cncc21 [Compound A36]	1.3 nM	136 nM
CN(C)C(=O)N[C@@H]1CCCc2c(-c3ccc4c(ccc(=O)n4C)c3)cncc21 [Compound A23]	12.5 nM	1920 nM
COC(=O)N[C@@H]1CCOc2c(-c3ccc4c(c3)CCC(=O)N4C)cncc21 [Compound A14]	2.3 nM	202 nM
[2H]C([2H])([2H])NC(=O)N[C@@H]1CCCc2c(-c3ccc4c(ccc(=O)n4C)c3)cncc21 [Compound A15]	9.9 nM	–
[2H]C([2H])([2H])OC(=O)N[C@@H]1CCCc2c(-c3cc(F)c4c(ccc(=O)n4C)c3)cncc21 [Compound A48]	5.9 nM	712 nM
CN(C)C(=O)N[C@@H]1CCCc2c(-c3ccc4c(c3)COC(=O)N4C)cncc21 [Compound A33]	9.7 nM	312 nM
CCC(=O)NC1CCCc2c(-c3cnc4c(c3)CCCN4C(N)=O)cncc21 (centres unmarked) [Compound C02]	16.9 nM	–
[2H]C([2H])([2H])NC(=O)N[C@@H]1CCOc2c(-c3ccc4c(c3)cc(C#N)n4C)cncc21 [Compound A38]	2.3 nM	283 nM
COC(=O)N[C@@H]1CCCc2c(-c3cc(F)c4c(ccc(=O)n4C)c3)cncc21 [Compound A47]	6.9 nM	720 nM
COC(=O)N[C@@H]1CCCc2c(-c3cc(Cl)c4c(ccc(=O)n4C)c3)cncc21 [Compound A51]	4.4 nM	625 nM
COC(=O)N[C@@H]1CCOc2c(-c3ccc4c(c3)OCC(=O)N4C)cncc21 [Compound A44]	21.9 nM	–
CCC(=O)N[C@@H]1CCOc2c(-c3ccc4c(c3)OCC(=O)N4C)cncc21 [Compound A19]	35.5 nM	–

SMILES	IC50 (human CYP11B2 enzyme)	IC50 (human CYP11B1 enzyme)
[2H]C([2H])([2H])NC(=O)N[C@@H]1CCOc2c(-c3ccc4c(c3)OCC(=O)N4C)cncc21 [Compound A32]	34.7 nM	–
[2H]C([2H])([2H])NC(=O)N[C@@H]1CCOc2c(-c3ccc4c(c3)COC(=O)N4C)cncc21 [Compound A18]	7.5 nM	517 nM
CCC(=O)N[C@@H]1CCOc2c(-c3cc(F)c4c(c3)cc(C#N)n4C)cncc21 [Compound A55]	4.5 nM	–
[2H]C([2H])([2H])OC(=O)N[C@@H]1CCOc2c(-c3ccc4c(ccc(=O)n4C)c3)cncc21 [Compound A39]	10.1 nM	1450 nM
CCNC(=O)N[C@@H]1CCCc2c(-c3ccc4c(c3)CCC(=O)N4C)cncc21 [Compound D09]	28.2 nM	–
[2H]C([2H])([2H])OC(=O)N[C@@H]1CCCc2c(-c3cc(Cl)c4c(ccc(=O)n4C)c3)cncc21 [Compound A52]	5.9 nM	797 nM
[2H]C([2H])([2H])OC(=O)N[C@@H]1CCCc2c(-c3ccc4c(c3)OCC(=O)N4C)cncc21 [Compound A29]	8.8 nM	479 nM
[2H]C([2H])([2H])NC(=O)N[C@@H]1CCCc2c(-c3ccc4c(c3)OCC(=O)N4C)cncc21 [Compound A25]	14.9 nM	2150 nM
[2H]C([2H])([2H])OC(=O)N[C@@H]1CCOc2c(-c3ccc4c(c3)CCC(=O)N4C)cncc21 [Compound A13]	4.5 nM	381 nM
[2H]C([2H])([2H])NC(=O)N[C@@H]1CCOc2c(-c3ccc4c(c3)CCC(=O)N4C)cncc21 [Compound A11]	7.3 nM	1260 nM
CCC(=O)N[C@@H]1CCOc2c(-c3cc(Cl)c4c(c3)cc(C#N)n4C)cncc21 [Compound A56]	11.6 nM	–
CCC(=O)N[C@@H]1CCOc2c(-c3cc(F)c4c(ccc(=O)n4C)c3)cncc21 [Compound A20]	29.1 nM	–
CN(C)C(=O)N[C@@H]1CCCc2c(-c3ccc4c(c3)OCC(=O)N4C)cncc21 [Compound A26]	19 nM	–
[2H]C([2H])([2H])OC(=O)N[C@@H]1CCOc2c(-c3ccc4c(c3)OCC(=O)N4C)cncc21 [Compound A41]	28.9 nM	–
CCC(=O)N[C@@H]1COCc2c(-c3ccc4c(c3)CCC(=O)N4C)cncc21 [Compound A01]	41.7 nM	–
C[C@@H](F)C(=O)N[C@@H]1CCCc2c(-c3ccc4c(c3)CCC(=O)N4C)cncc21 [Compound D07-P1]	33.9 nM	–

Now from value to molecule:

IC50 (human CYP11B2 enzyme)	IC50 (human CYP11B1 enzyme)	SMILES
1.4 nM	266 nM	CCC(=O)N[C@@H]1CCCc2c(-c3ccc4c(c3)cc(C#N)n4C)cncc21 [Compound C36]
19.2 nM	2500 nM	CCC(=O)N[C@@H]1CCCc2c(-c3ccc4c(ccc(=O)n4C)c3)cncc21 [Compound C04]
32.7 nM	–	CCC(=O)N[C@@H]1CCCc2c(-c3ccc4c(ccc(=O)n4C(F)F)c3)cncc21 [Compound C33]
26.5 nM	–	CCC(=O)N[C@@H]1CCCc2c(-c3ccc4c(cnn4C)c3)cncc21 [Compound C21]
33.3 nM	–	CN1C(=O)CCc2cc(-c3cncc4c3CCC[C@H]4NC(=O)N3CCC3)ccc21 [Compound D17]
11 nM	803 nM	[2H]C([2H])([2H])NC(=O)N[C@@H]1CCCc2c(-c3ccc4c(c3)CCC(=O)N4C)cncc21 [Compound D08]
33 nM	–	CCC(=O)N[C@@H]1CCCc2c(-c3ccc4c(ccc(=O)n4C)c3F)cncc21 [Compound C45]
11.4 nM	1720 nM	CCC(=O)N[C@@H]1CCCc2c(-c3cnc4c(c3)cc(C#N)n4C)cncc21 [Compound C37]
5.9 nM	–	CNC(=O)N[C@@H]1CCCc2c(-c3ccc4c(c3)CCC(=O)N4C)cncc21 [Compound D01]
24.2 nM	–	CCC(=O)N[C@@H]1CCCc2c(-c3ccc4c(c3)CC(=O)N4C)cncc21 [Compound C24]
43.3 nM	–	CCC(=O)N[C@@H]1CCCc2c(-c3ccc4c(c3)cc(F)c(=O)n4C)cncc21 [Compound C16]
8.1 nM	–	CN1C(=O)CCc2cc(-c3cncc4c3CCC[C@H]4N3CCCC3=O)ccc21 [Compound D03]
3.4 nM	–	COC(=O)N[C@@H]1CCCc2c(-c3ccc4c(c3)CCC(=O)N4C)cncc21 [Compound D05]
13 nM	–	CN1C(=O)CCc2cc(-c3cncc4c3CCC[C@H]4N3CCC4(CC4)C3=O)ccc21 [Compound D14]

Reference: patent publication EP4806899A1, “FUSED RING DERIVATIVE, PREPARATION METHOD THEREFOR AND USE THEREOF IN MEDICINE” (Shanghai Qilu Pharmaceutical Research and Development …, priority 2023, dated 2025)
